According to ChEMBL document CHEMBL5512671, “Structure-Based Optimization of Novel Sterol 24-C-Methyltransferase Inhibitors for the Treatment of Candida albicans Infections” (J Med Chem, 2024):
Calls of active or inactive are those of the source. The calls are words filed in the database; no cut-off is given here.

Assays:
Candida albicans [1] = assay: Downregulation of ALS3 expression in Candida albicans SC5314 at 1 ug/ml incubated for 6 hrs by qPCR analysis; type: functional; details: dose 1.0 µg/ml
Nakaseomyces glabratus [2] = assay: Antifungal activity against Candida glabrata CG2 assessed as effect on cell structure at 1 ug/ml measured after 6 hrs by microscopy based analysis; type: functional, organism-based; details: dose 1.0 µg/ml
Candida albicans [3] = assay: Antifungal activity against Candida albicans SC5314 infected in Balb/C mouse candidiasis model assessed as filamentation defect at 0.5 % administered topically and measured after 72 hrs in presence of terbinafine by PAS staining based analysis; type: functional, organism-based
Candida albicans [4] = assay: Synergistic antifungal activity against Candida albicans SC5314 assessed as fractional inhibitory concentration index incubated for 24 hrs in presence of terbinafine by broth microdilution checkerboard assay; type: functional
Candida albicans [5] = assay: Downregulation of HWP1 expression in Candida albicans SC5314 at 1 ug/ml incubated for 6 hrs by qPCR analysis; type: functional; details: dose 1.0 µg/ml
Candida parapsilosis [6] = assay: Antifungal activity against Candida parapsilosis CP1 assessed as inhibition of hyphae formation at 1 ug/ml measured after 6 hrs by microscopy based analysis; type: functional, organism-based; details: dose 1.0 µg/ml
Candida albicans [7] = assay: Fungistatic activity against Candida albicans SC5314 at 1 ug/ml incubated for 3 hrs in presence of tridemorph by SYTOX staining based analysis; type: functional, organism-based; details: dose 1.0 µg/ml
Candida albicans [8] = assay: Downregulation of RAS1 gene level in Candida albicans SC5314 at 1 ug/ml incubated for 6 hrs by qPCR analysis; type: functional; details: dose 1.0 µg/ml
Candida parapsilosis [9] = assay: Antifungal activity against Candida parapsilosis CP1 assessed as inhibition of fungal growth incubated for 24 hrs by CLSI protocol based broth microdilution method; type: functional; details: Lodderomyces parapsilosis
Candida albicans [10] = assay: Upregulation of PDE2 gene level in Candida albicans SC5314 at 1 ug/ml incubated for 6 hrs by qPCR analysis; type: functional; details: dose 1.0 µg/ml
Candida albicans [11] = assay: Antifungal activity against Candida albicans SC5314 infected in Balb/C mouse candidiasis model assessed as filamentation defect at 0.5 % administered topically and measured after 72 hrs by PAS staining based analysis; type: functional, organism-based
[Candida] auris [12] = Antifungal activity against Candida auris CBS12774 assessed as effect on cell size at 1 ug/ml measured after 6 hrs by microscopy based analysis; type: functional, organism-based; details: Candidozyma auris, dose 1.0 µg/ml
Candida parapsilosis [13] = assay: Antifungal activity against Candida parapsilosis CP1 assessed as effect on structure at 1 ug/ml measured after 6 hrs by microscopy based analysis; type: functional, organism-based; details: dose 1.0 µg/ml
Candida albicans [14] = assay: Antifungal activity against Candida albicans SC5314 assessed as inhibition of hyphae growth measured after 6 hrs cultured under RPMI1640 medium by microscopy based analysis; type: functional, organism-based; details: dose 0.25-1 µg/ml
Candida parapsilosis [15] = assay: Antifungal activity against Candida parapsilosis CP1 assessed as effect on cell size at 1 ug/ml measured after 6 hrs by microscopy based analysis; type: functional, organism-based; details: dose 1.0 µg/ml
Candida albicans [16] = assay: Fungistatic activity against Candida albicans SC5314 at 1 ug/ml incubated for 3 hrs in presence of terbinafine by SYTOX staining based analysis; type: functional, organism-based; details: dose 1.0 µg/ml
Candida albicans [17] = assay: Antifungal activity against Candida albicans SC5314 assessed as inhibition of hyphae growth incubated for 24 hrs by CLSI protocol based broth microdilution method; type: functional
Candida albicans [18] = assay: Antifungal activity against Candida albicans SC5314 assessed as inhibition of morphological transition at 0.5 ug/ml measured after 5 days cultured under YPD embedded agar medium by microscopy based analysis relative to control; type: functional; parameters: scale not given: the % may be the effect or the level left; details: dose 0.5 µg/ml; time 5 day
Candida albicans [19] = assay: Antifungal activity against Candida albicans SC5314 assessed as inhibition of hyphae growth measured after 6 hrs cultured under RPMI1640 medium/5% serum by microscopy based analysis; type: functional, organism-based; details: dose 0.25-1 µg/ml
Candida albicans [20] = assay: Synergistic antifungal activity against Candida albicans SC5314 assessed as fractional inhibitory concentration index incubated for 24 hrs in presence of tridemorph by broth microdilution checkerboard assay; type: functional
Nakaseomyces glabratus [21] = assay: Antifungal activity against Candida glabrata CG2 assessed as effect on cell size at 1 ug/ml measured after 6 hrs by microscopy based analysis; type: functional, organism-based; details: dose 1.0 µg/ml
Candida albicans [22] = assay: Antifungal activity against Candida albicans SC5314 assessed as inhibition of hyphae growth measured after 30 passages; type: functional, organism-based
Candida albicans [23] = assay: Antifungal activity against Candida albicans SC5314 assessed as inhibition of hyphae growth measured after 5 days cultured under solid spider agar medium by microscopy based analysis; type: functional, organism-based; details: dose 0.25-1 µg/ml, time 5.0 day
Candida albicans [24] = assay: Synergistic antifungal activity against Candida albicans SC5314 assessed as inhibition of fungal growth incubated for 24 hrs in presence of terbinafine by broth microdilution checkerboard assay; type: functional
Nakaseomyces glabratus [25] = assay: Antifungal activity against Candida glabrata CG2 assessed as inhibition of hyphae formation at 1 ug/ml measured after 6 hrs by microscopy based analysis; type: functional, organism-based; details: dose 1.0 µg/ml
Candida albicans [26] = assay: Downregulation of ECE1 expression in Candida albicans SC5314 at 1 ug/ml incubated for 6 hrs by qPCR analysis; type: functional; details: dose 1.0 µg/ml
[Candida] auris [27] = Antifungal activity against Candida auris CBS12774 assessed as inhibition of hyphae formation at 1 ug/ml measured after 6 hrs by microscopy based analysis; type: functional, organism-based; details: Candidozyma auris, dose 1.0 µg/ml
Candida albicans [28] = assay: Antifungal activity against Candida albicans SC5314 assessed as inhibition of hyphae growth measured after 5 days cultured under solid spider agar medium and 10mM GlcNAc by microscopy based analysis; type: functional, organism-based; details: dose 0.25-1 µg/ml, time 5.0 day
Candida albicans [29] = assay: Antifungal activity against Candida albicans SC5314 infected in Balb/C mouse candidiasis model assessed as decrease in skin fungal burden by measuring fold change at 0.5 % administered topically and measured after 72 hrs in presence of tridemorph; type: functional
[Candida] auris [30] = Antifungal activity against Candida auris CBS12774 assessed as inhibition of fungal growth incubated for 24 hrs by CLSI protocol based broth microdilution method; type: functional; details: Candidozyma auris
[31] = target: T1, Sterol 24-C-methyltransferase (Candida albicans (strain SC5314 / ATCC MYA-2876) (Yeast)) (UniProt O74198); assay: Inhibition of Candida albicans SC5314 Erg6 assessed as fold increase in zymosterol content at 1 ug/ml incubated for 12 hrs by GC-MS analysis; details: dose 1.0 µg/ml
T1 sequence (whole entry): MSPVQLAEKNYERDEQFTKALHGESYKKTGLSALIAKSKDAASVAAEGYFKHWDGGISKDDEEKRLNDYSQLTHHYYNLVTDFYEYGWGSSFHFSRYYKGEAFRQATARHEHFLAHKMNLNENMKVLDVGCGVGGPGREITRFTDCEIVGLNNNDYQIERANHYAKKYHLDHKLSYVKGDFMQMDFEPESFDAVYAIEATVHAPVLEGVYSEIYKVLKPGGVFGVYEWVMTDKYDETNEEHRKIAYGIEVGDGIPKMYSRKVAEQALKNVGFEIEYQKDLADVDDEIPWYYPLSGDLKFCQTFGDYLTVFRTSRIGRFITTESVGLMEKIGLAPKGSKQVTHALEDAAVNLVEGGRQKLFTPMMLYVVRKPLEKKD

Candida albicans [32] = assay: Antifungal activity against Candida albicans SC5314 infected in Balb/C mouse candidiasis model assessed as appearance of inflammatory infiltrates at 0.5 % administered topically and measured after 72 hrs in presence of tridemorph by H and E staining based analysis; type: functional, organism-based
Candida albicans [33] = assay: Antifungal activity against Candida albicans SC5314 infected in Balb/C mouse candidiasis model assessed as filamentation defect at 0.5 % administered topically and measured after 72 hrs in presence of tridemorph by PAS staining based analysis; type: functional, organism-based

Cc1c(-n2c(-c3ccc4ccccc4c3)cs/c2=N\c2ccccc2)c(=O)n(-c2ccccc2)n1C
Activity (Candida albicans [1]): Active | Activity (Nakaseomyces glabratus [2]): inactive | Activity (Candida albicans [3]): Active | fractional inhibitory concentration index (FICI) (Candida albicans [4]): <0.1 | Activity (Candida albicans [5]): Active | Activity (Candida parapsilosis [6]): Active | Activity (Candida albicans [7]): Active | Activity (Candida albicans [8]): Active | MIC (Candida parapsilosis [9]): > 128 µg/mL | Activity (Candida albicans [10]): Active | Activity (Candida albicans [11]): Active | Activity ([Candida] auris [12]): inactive | Activity (Candida parapsilosis [13]): inactive | Activity (Candida albicans [14]): Dose-Dependent Effect | Activity (Candida parapsilosis [15]): inactive | Activity (Candida albicans [16]): Active | MIC50 (Candida albicans [17]): > 128 µg/mL | Activity (Candida albicans [18]): 100% | Activity (Candida albicans [19]): Dose-Dependent Effect | fractional inhibitory concentration index (FICI) (Candida albicans [20]): <0.1 | Activity (Nakaseomyces glabratus [21]): inactive | Activity (Candida albicans [22]): Active | Activity (Candida albicans [23]): Dose-Dependent Effect | MIC80 (Candida albicans [24]): 1 µg/mL | Activity (Nakaseomyces glabratus [25]): Active | Activity (Candida albicans [26]): Active | Activity ([Candida] auris [27]): Active | Activity (Candida albicans [28]): Dose-Dependent Effect | fold change (FC) (Candida albicans [29]): 60.26 | MIC ([Candida] auris [30]): > 128 µg/mL | fold change (FC) [31]: 11 | Activity (Candida albicans [32]): inactive | Activity (Candida albicans [33]): Active
